Reference: patent US20140219986A1, “DOSING REGIMENS FOR THE TREATMENT OF FABRY DISEASE” (AMICUS THERAPEUTICS ,INC., priority 2011, published 2014)
Where “and” joins values, the source holds several entries; their conditions need not be identical. Equal entries are not always repeated. Structures can show the parent of a compound that is named as a salt. Where two headings read alike, the source gives them in different places.

Assays:
α-Gal A [1] = biological target: T1, α-Gal A (Homo sapiens, UniProt P06280); assay: Phase 2 co-administration study: Western blot of plasma α-Gal A protein; format: in vivo; conditions: 5 out of 7 subjects
T1 construct: purchased Genzyme Corporation (Fabrazyme®)
T1 sequence (P06280 32-429): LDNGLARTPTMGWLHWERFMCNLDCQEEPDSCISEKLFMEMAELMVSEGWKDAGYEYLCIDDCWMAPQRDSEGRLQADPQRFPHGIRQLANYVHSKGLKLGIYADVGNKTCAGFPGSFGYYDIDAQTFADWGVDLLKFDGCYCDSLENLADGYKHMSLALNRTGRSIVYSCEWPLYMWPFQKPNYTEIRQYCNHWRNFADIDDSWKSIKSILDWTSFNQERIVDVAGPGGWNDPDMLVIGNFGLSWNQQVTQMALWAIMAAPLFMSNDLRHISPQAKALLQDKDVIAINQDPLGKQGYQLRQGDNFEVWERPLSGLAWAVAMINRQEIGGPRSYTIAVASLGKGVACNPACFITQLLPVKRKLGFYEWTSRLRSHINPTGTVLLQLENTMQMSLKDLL
Procedure: Migalastat HCl and rhα-Gal A Pharmacokinetics. Concentrations of migalastat HCl in blood samples will be measured in plasma using a validated LC-MS/MS assay. α-Gal A levels in plasma will be determined by a validated assay measuring enzyme activity using 4-MUG, with and without Con A. α-Gal A protein levels will be measured by Western blotting using anti-human Gal A antibody.
Western blot analysis of α-Gal A protein were performed on plasma samples using anti-human α-Gal A antibody. An rhα-Gal A (agalsidase) standard curve was run to calculate the appropriate concentration of α-Gal protein in each sample.

[2] = male GLA-deficient mice; 3 and 30 mg/kg three times a week for four weeks with Fabrazyme 1 mg/kg i.v. once a week
Procedure: A preliminary study in GLA deficient mice has been conducted evaluating the safety of co-administered migalastat hydrochloride and Fabrazyme®. Migalastat hydrochloride was administered three times a week for four weeks at doses of 3 and 30 mg/kg in combination with Fabrazyme® administered intravenously once a week at a dose of 1 mg/kg.

rhα-Gal A [3] = biological target: T2, rhα-Gal A (Homo sapiens, UniProt P06280); assay: In vitro stabilization of rhα-Gal A at neutral pH (thermal denaturation and activity); format: biochemical
T2 sequence (P06280 32-429): T1 sequence (P06280 32-429)
From the text: Migalastat hydrochloride stabilizes wild-type α-Gal A in vitro and as well as in vivo.

α-Gal A [4] = biological target: T1, α-Gal A; assay: Phase 2 co-administration study: PBMC α-Gal A activity (4-MUG); format: in vivo; conditions: for individual patient increases in PBMC α-Gal A activity: 1 mg/kg
Procedure: WBC α-Gal A Levels. α-Gal A levels in WBCs will be determined in blood samples by a validated assay measuring enzyme activity using 4-MUG, with and without Con A. α-Gal A protein levels will be measured by Western blotting using anti-human Gal A antibody.
(§1) Methods. The study was conducted according to the methods described in Example 1. Specifically, this was an open-label, single dose, non-randomized, fixed-sequence, 2-stage study. Stage 1 comprised of 3 periods: • (1) agalsidase beta 0.5 mg/kg or 1.0 mg/kg (infusion for about 2 hours) or agalsidase alpha 0.2 mg/kg (infusion for about 40 min.) enzyme replacement montherapy (ERT); • (2) ERT+150 mg migalastat oral tablet (single dose) co-administration, migalastat administered 2 hrs. prior to ERT; and • (3) 150 mg migalastat monotherapy.
(§2) α-Gal A catalyzes the initial step in breakdown of substrate GL-3 in vivo. α-Gal A also acts on other substrates with the same α-bond such as the artificial low-molecular weight florescent substrate, 4-MUG. α-Gal A activity on 4-MUG was measured in vitro from plasma, skin, and PBMC samples following serial dilutions to dissociate migalastat.
(§3) 6 patients with plasma, skin, and PBMC α-galactosidase A activity from Stage 1, Periods 1 and 2, were evaluated. Four patients received 0.5 mg/kg agalsidase beta ERT and 2 patients received 1.0 mg/kg agalsidase beta ERT during Period 1, and co-administration of 150 mg migalastat 2 hours prior to initiation of the same dose of ERT during Period 2.
(§4) Serial blood samples were taken to 24 hours post dose for plasma α-Gal A activity and protein levels each period. Blood samples for α-Gal A activity in peripheral blood mononuclear cells (PBMCs) were taken at predose and on Days 1, 2, 7, and 14 of each period. Punch biopsies for skin α-Gal A activity were taken at predose Period 1 and on Days 2 and 7 during Periods 1 and 2. Plasma α-Gal A activity PK parameters include Cmax, Tmax, AUC0-t, AUC0-inf, and t1/2. Pharmacokinetic parameters are calculated using standard non-compartmental procedures (WINNONLIN version 5.0 or higher).
(§5) α-Gal A activity in plasma skin, and PBMC lysates were measured by a fluorescence enzyme assay using 4-methylumbelliferyl-α-D-galactopyranoside (4-MUG). α-Gal A activity on 4 MUG was measured in vitro following serial dilutions to dissociate migalastat.

α-Gal A [5] = biological target: T1, α-Gal A; assay: Phase 2 co-administration study: skin α-Gal A activity (4-MUG); format: in vivo; conditions: 150 mg migalastat HCl + 0.5 mg/kg agalsidase beta, N=5 (Example 3)
agalsidase alfa = biological target: T3, agalsidase alfa (Homo sapiens, UniProt P06280); assay: In vitro thermal denaturation assay of agalsidase alfa; format: binding
T3 construct: purchased Shire Human Genetic Therapies (Replagal®)
T3 sequence (P06280 32-429): T1 sequence (P06280 32-429)
Procedure: The effect of migalastat hydrochloride on the physical stability of agalsidase alfa was evaluated with an in vitro thermal denaturation assay.

α-Gal A [6] = biological target: T1, α-Gal A; assay: Phase 2 co-administration study: skin α-Gal A activity (4-MUG); format: in vivo
Procedure: α-Gal A Enzyme Levels in Skin. α-Gal A enzyme levels will be examined in skin biopsy samples. Skin biopsies will be done using a “punch” device. One piece will be removed at each visit. α-Gal A levels in skin will be determined by a validated assay measuring enzyme activity using 4-MUG, with and without Con A. α-Gal A protein levels will be measured by Western blotting using anti-human Gal A antibody.
as §1, §2, §3, §4, §5

α-Gal A [7] = biological target: T1, α-Gal A; assay: Phase 2 co-administration study: PBMC α-Gal A activity (4-MUG); format: in vivo; conditions: 150 mg migalastat HCl + 0.5 mg/kg agalsidase beta, N=5 (Example 3)
rhα-Gal A [8] = biological target: T2, rhα-Gal A; assay: Oral migalastat hydrochloride with rhα-Gal A injection in the GLA deficient mouse, tissue α-Gal A and GL-3; format: in vivo; conditions: 30, 100 or 300 mg/kg oral 30 min prior to and 2 hours after rhα-Gal A, vs rhα-Gal A alone
[9] = Phase 2 co-administration study: safety; format: in vivo, human
From the text: Safety Parameters. Safety parameters will be assessed by review of changes in physical exam findings, vital signs, ECG changes over time, clinical labs and adverse events.
The safety parameters included adverse events (AEs), vital signs, clinical laboratory tests (hematology, serum chemistry, and urinalysis), electrocardiograms (ECGs), physical examinations, and use of concomitant medications.

[10] = cited from earlier work
[11] = cited from earlier work; remark: listed apart in the source
[12] = cited from earlier work; remark: listed apart in the source
[13] = 150 mg migalastat + 1.0 mg/kg agalsidase beta, Day 2, N=2
[14] = 150 mg migalastat + 1.0 mg/kg agalsidase beta, Day 7, N=2

For `OC[C@H]1NC[C@H](O)[C@@H](O)[C@H]1O` [migalastat hydrochloride, (2R,3S,4R,5S)-2-(hydroxymethyl)piperidine-3,4,5-triol], the “plasma α-Gal A protein, Period 2 (co-administration)/Period 1 (ERT alone) AUC ratio” value (α-Gal A [1]) was “No change”, the “survival, clinical condition, hematology and clinical chemistry parameters” value [2] was “no direct drug-related changes” and the “stabilization of rhα-Gal A” value (rhα-Gal A [3]) was “significant time- and concentration-dependent increases in stabilization”. The “individual patient increase range in PBMC α-Gal A activity” value (shortened to “individual patient increase range”) (α-Gal A [4]; 150 mg migalastat + 0.5 mg/kg agalsidase beta, Day 2) was 1.4-3.1 fold, the “mean increase in PBMC α-Gal A activity” value (α-Gal A [4]; 150 mg migalastat + 0.5 mg/kg agalsidase beta, Day 2, N=4 (Example 2)) was 2.3 fold and the “individual patient increase range” value (α-Gal A [4]; 150 mg migalastat + 0.5 mg/kg agalsidase beta, Day 7) was 1.4-2.3 fold. For the same compound, the “mean increase in PBMC α-Gal A activity” value (α-Gal A [4]; 150 mg migalastat + 0.5 mg/kg agalsidase beta, Day 7, N=4 (Example 2)) was 2.0 fold, the “individual patient increase range” value (α-Gal A [4]; 150 mg migalastat + 0.5 mg/kg agalsidase beta, Day 14) was 1.7-2.8 fold and the “mean increase in PBMC α-Gal A activity” value (α-Gal A [4]; 150 mg migalastat + 0.5 mg/kg agalsidase beta, Day 14, N=4 (Example 2)) was 2.2 fold. The “individual patient increases in PBMC α-Gal A activity” value (α-Gal A [4]; 150 mg migalastat + 1.0 mg/kg agalsidase beta, Day 2) was 1.1 fold and 2.5 fold, the “mean increase in PBMC α-Gal A activity” value (α-Gal A [4]; [13]) was 1.8 fold and the “individual patient increases in PBMC α-Gal A activity” value (α-Gal A [4]; 150 mg migalastat + 1.0 mg/kg agalsidase beta, Day 7) was 3.6 fold and 6.0 fold. The “mean increase in PBMC α-Gal A activity” value (α-Gal A [4]; [14]) was 4.8 fold, the “individual patient increases in PBMC α-Gal A activity” value (α-Gal A [4]; 150 mg migalastat + 1.0 mg/kg agalsidase beta, Day 14) was 1.7 fold and 5.4 fold and the “mean increase in PBMC α-Gal A activity” value (α-Gal A [4]; 150 mg migalastat + 1.0 mg/kg agalsidase beta, Day 14, N=2) was 3.5 fold. The “mean increase in skin α-Gal A activity” value (α-Gal A [5]; Day 2) was 2.6 fold, the “mean increase in skin α-Gal A activity” value (α-Gal A [5]; Day 7) was 1.4 fold and the “melting temperature (Tm) of agalsidase alfa” value (“melting temperature (Tm)” for short) (agalsidase alfa; pH 5.2, 10 μM migalastat hydrochloride) was 68 °C. The “melting temperature (Tm)” value (agalsidase alfa; pH 7.4, 10 μM migalastat hydrochloride) was 59 °C, the “individual patient increases in skin α-Gal A activity” value (α-Gal A [6]; 150 mg migalastat + 0.5 mg/kg agalsidase beta, Day 2 (Example 2), 0.5 mg/kg) was 2.8 fold and 3.9 fold and 1.1 fold and the “mean increase in skin α-Gal A activity” value (α-Gal A [6]; 150 mg migalastat + 0.5 mg/kg agalsidase beta, Day 2, N=3 (Example 2)) was 2.6 fold. The “change in skin α-Gal A activity from Period 1” value (α-Gal A [6]; 150 mg migalastat + 0.5 mg/kg agalsidase beta, Day 7 (Example 2)) was “No change”, the “individual patient increases in skin α-Gal A activity” value (α-Gal A [6]; 150 mg migalastat + 1.0 mg/kg agalsidase beta, Day 2, 1 mg/kg) was 1.6 fold and 2.1 fold and the “mean increase in skin α-Gal A activity” value (α-Gal A [6]; [13]) was 1.9 fold. The “individual patient increases in skin α-Gal A activity” value (α-Gal A [6]; 150 mg migalastat + 1.0 mg/kg agalsidase beta, Day 7, 1 mg/kg) was 1.7 fold and 1.2 fold, the “mean increase in skin α-Gal A activity” value (α-Gal A [6]; [14]) was 1.5 fold and the “patients with increased skin α-Gal A activity following co-administration” value (α-Gal A [6]; 150 mg migalastat + 0.5 or 1.0 mg/kg agalsidase beta, Day 7) was 3 of 5 and four. For the same compound, the “mean increase in PBMC α-Gal A activity” value (α-Gal A [7]; Day 2) was 2.4 fold, the “mean increase in PBMC α-Gal A activity” value (α-Gal A [7]; Day 7) was 1.9 fold and the “mean increase in PBMC α-Gal A activity” value (α-Gal A [7]; Day 14) was 2.1 fold. For the same compound, the “GL-3 levels in skin, heart, kidney, and plasma” value (rhα-Gal A [8]) was “dose-dependent reduction”, the “tissue α-Gal A levels” value (rhα-Gal A [8]) was “dose-dependent increase” and the safety and tolerability ([9]; co-administration of 150 mg migalastat HCl with agalsidase beta) was “generally safe and well-tolerated”. For the same compound, the “adverse events (AEs) reported” value ([9]; seven subjects, to date, one serious (TIA, prior to dosing), all considered unrelated to study drug) was 12.

In the case of “agalsidase alfa: recombinant α-Gal A enzyme replacement therapy (Replagal®, Shire Human Genetic Therapies)”, the AUC versus dose ([10]; 0.1 to 0.4 mg/kg) is given as “linearly proportional to dose”, the IgE antibodies ([10]; 10-week study) is given as “No IgE antibodies were detected” and the “patients who became IgG positive during the study” value ([10]; 10-week study) is given as “Two of 18”. For the same compound, the “Plasma GL-3 levels reduction” value ([10]; all dose groups, independent of dose and dosing frequency) was “approximately 50%”, the mean half life ([10]; doses 0.1 to 0.4 mg/kg agalsidase alfa, ERT naïve adult male Fabry patients) was 56 to 76 min and the “melting temperature (Tm)” value (agalsidase alfa; pH 5.2, enzyme alone) was 58 °C. The “melting temperature (Tm)” value (agalsidase alfa; pH 7.4, enzyme alone) was “approximately 51 °C”.

For “agalsidase beta: recombinant α-Gal A enzyme replacement therapy (Fabrazyme®; Genzyme Corporation)”, the “maximal agalsidase concentrations and AUC values reduced, of baseline values” ([11]; adult patients with the highest titers of IgG) is listed as “up to 26%”, the “patients who developed IgG antibodies” value ([11]; adult patients) is listed as 79% and the “patients who developed IgG antibodies” value ([11]; pediatric patients) is listed as 69%. The “PBMC α-Gal A activity relative to baseline” value (α-Gal A [4]; agalsidase beta alone, all patients, all time points) was “increased”, the “patients with decreased skin α-Gal A activity relative to baseline” value (α-Gal A [6]; agalsidase beta alone, 0.5 mg/kg infusion, Day 2) was 2 and the “pharmacokinetics, dose linearity” value ([12]; AUC increasing and clearance decreasing disproportionally with dose) was “non-linear pharmacokinetics”. For the same compound, the AUC increase ([12]; dose increased from 0.3 mg/kg to 1 mg/kg) was “approximately 6 fold” and the AUC increase ([12]; dose increased from 1 mg/kg to 3 mg/kg) was about 8 fold.
